Source: US9868772B2 (INDIANA UNIVERSITY RESEARCH AND TECHNOLOGY CORPORATION, priority 2012, dated 2018)
Numbered stars: 1 amine (or outer) side, 2 acyl side, 3 side chain; on linkers, the order of the positions; unused ones are H or OH. Square brackets hold non-standard residues; d marks the D form. Side chains are listed from the residue outwards. Peptide text beside a SMILES is read from it. * marks the point of attachment. γGlu = O=C(O)[C@H](CCC(=O)[*:2])N[*:1]; Palmitoyl = CCCCCCCCCCCCCCCC(=O)*; Sar = CNCC(=O)O

Columns and labels:
Assay in all cases: cAMP induction, firefly luciferase reporter assay in HEK293 cells co-transfected with receptor
Format in all cases: cell-based
Conditions in all cases: Table 1, analogs of SEQ ID NO: 37
[1] = target: T1, GIP receptor (Homo sapiens, UniProt P48546)
T1 construct: expressed in transfected cells; host or cells: HEK293
T1 sequence (P48546 22-466): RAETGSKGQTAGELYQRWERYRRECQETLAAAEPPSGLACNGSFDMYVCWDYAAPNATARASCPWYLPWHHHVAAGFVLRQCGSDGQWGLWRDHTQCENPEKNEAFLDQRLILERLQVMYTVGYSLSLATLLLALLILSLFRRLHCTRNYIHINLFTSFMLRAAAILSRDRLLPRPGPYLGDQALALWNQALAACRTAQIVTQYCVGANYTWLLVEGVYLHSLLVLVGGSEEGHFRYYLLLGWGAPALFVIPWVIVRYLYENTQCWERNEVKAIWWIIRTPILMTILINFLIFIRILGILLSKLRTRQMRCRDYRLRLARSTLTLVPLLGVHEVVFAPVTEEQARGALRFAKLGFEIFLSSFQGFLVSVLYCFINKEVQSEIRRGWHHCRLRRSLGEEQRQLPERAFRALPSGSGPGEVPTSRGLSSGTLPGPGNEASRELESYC
Procedure: (§1) The ability of glucagon analogs to induce cAMP was measured in a firefly luciferase-based reporter assay. […] At the end of the incubation 100 microliters of LucLite luminescence substrate reagent (Perkin-Elmer, Wellesley, Mass.) were added to each well. […] Effective 50% concentrations were calculated by using Origin software (OriginLab, Northampton, Mass.

[2] = target: T2, GLP-1 receptor (Homo sapiens, UniProt P43220)
T2 construct: expressed in transfected cells; host or cells: HEK293
T2 sequence (P43220 24-463): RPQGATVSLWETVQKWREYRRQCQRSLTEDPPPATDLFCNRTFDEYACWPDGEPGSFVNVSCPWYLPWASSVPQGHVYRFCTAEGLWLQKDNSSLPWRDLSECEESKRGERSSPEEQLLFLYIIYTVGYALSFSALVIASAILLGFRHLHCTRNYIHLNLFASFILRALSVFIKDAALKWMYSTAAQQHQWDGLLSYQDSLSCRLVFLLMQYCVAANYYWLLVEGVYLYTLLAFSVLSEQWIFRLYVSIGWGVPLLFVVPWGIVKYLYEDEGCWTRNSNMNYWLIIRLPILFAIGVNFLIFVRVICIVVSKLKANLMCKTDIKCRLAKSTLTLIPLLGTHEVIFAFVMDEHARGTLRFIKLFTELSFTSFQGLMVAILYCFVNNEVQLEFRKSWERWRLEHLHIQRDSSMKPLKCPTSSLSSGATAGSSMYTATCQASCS
Procedure: as §1

[3] = target: T3, glucagon receptor (Homo sapiens, UniProt P47871)
T3 construct: expressed in transfected cells; host or cells: HEK293
T3 sequence (P47871 26-477): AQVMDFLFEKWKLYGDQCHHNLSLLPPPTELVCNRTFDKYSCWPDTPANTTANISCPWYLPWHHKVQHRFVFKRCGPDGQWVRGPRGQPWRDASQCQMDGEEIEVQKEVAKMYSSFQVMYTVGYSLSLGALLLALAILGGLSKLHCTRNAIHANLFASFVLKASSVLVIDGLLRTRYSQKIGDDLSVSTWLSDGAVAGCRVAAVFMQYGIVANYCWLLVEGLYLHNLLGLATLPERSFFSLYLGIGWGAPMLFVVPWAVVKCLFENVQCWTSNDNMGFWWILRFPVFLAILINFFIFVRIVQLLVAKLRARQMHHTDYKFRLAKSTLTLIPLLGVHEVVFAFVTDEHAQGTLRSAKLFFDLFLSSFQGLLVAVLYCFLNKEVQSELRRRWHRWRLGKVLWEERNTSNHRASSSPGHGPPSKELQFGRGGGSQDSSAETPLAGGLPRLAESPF
Procedure: as §1

| Compound | EC50 [1] | EC50 [2] | EC50 [3] |
| --- | --- | --- | --- |
| CCCCCCCCCCCCCCCC(=O)N[C@@H](CCC(=O)NCCCC[C@H](NC(=O)[C@H](CC(=O)O)NC(=O)[C@H](CO)NC(=O)[C@@H](NC(=O)[C@H](Cc1ccccc1)NC(=O)[C@@H](NC(=O)CNC(=O)[C@H](CCC(N)=O)NC(=O)[C@H](C)NC(=O)[C@@H](Cc1c[nH]cn1)NC(C)=O)[C@@H](C)O)[C@@H](C)O)C(=O)N[C@@H](CO)C(=O)N[C@@H](CCCCN)C(=O)N[C@@H](Cc1ccc(O)cc1)C(=O)N[C@@H](CC(C)C)C(=O)N[C@@H](CC(=O)O)C(=O)N[C@@H](CCC(=O)O)C(=O)N[C@@H](CCCNC(=N)N)C(=O)N[C@@H](C)C(=O)N[C@@H](C)C(=O)N[C@@H](CCC(N)=O)C(=O)N[C@@H](CC(=O)O)C(=O)N[C@@H](Cc1ccccc1)C(=O)N[C@H](C(=O)N[C@@H](CCC(N)=O)C(=O)N[C@@H](Cc1c[nH]c2ccccc12)C(=O)N[C@@H](CC(C)C)C(=O)N[C@@H](CC(C)C)C(=O)N[C@@H](CCC(=O)O)C(=O)NCC(=O)NCC(=O)N1CCC[C@H]1C(=O)N[C@@H](CO)C(=O)N[C@@H](CO)C(=O)NCC(=O)N[C@@H](C)C(=O)N1CCC[C@H]1C(=O)N1CCC[C@H]1C(=O)N1CCC[C@H]1C(=O)N[C@@H](CO)C(N)=O)C(C)C)C(=O)O [compound 13] | 0.004 nM | 0.004 nM | 0.002 nM |
| CCCCCCCCCCCCCCCC(=O)N[C@@H](CCC(=O)NCCCC[C@H](NC(=O)[C@H](CC(=O)O)NC(=O)[C@H](CO)NC(=O)[C@@H](NC(=O)[C@H](Cc1ccccc1)NC(=O)[C@@H](NC(=O)CNC(=O)[C@H](CCC(N)=O)NC(=O)CNC(=O)[C@H](N)Cc1c[nH]cn1)[C@@H](C)O)[C@@H](C)O)C(=O)N[C@@H](CO)C(=O)N[C@@H](CCCCN)C(=O)N[C@@H](Cc1ccc(O)cc1)C(=O)N[C@@H](CC(C)C)C(=O)N[C@@H](CC(=O)O)C(=O)N[C@@H](CCC(=O)O)C(=O)N[C@@H](CCCNC(=N)N)C(=O)N[C@@H](C)C(=O)N[C@@H](C)C(=O)N[C@@H](CCC(N)=O)C(=O)N[C@@H](CC(=O)O)C(=O)N[C@@H](Cc1ccccc1)C(=O)N[C@H](C(=O)N[C@@H](CCC(N)=O)C(=O)N[C@@H](Cc1c[nH]c2ccccc12)C(=O)N[C@@H](CC(C)C)C(=O)N[C@@H](CC(C)C)C(=O)N[C@@H](CCC(=O)O)C(=O)NCC(=O)NCC(=O)N1CCC[C@H]1C(=O)N[C@@H](CO)C(=O)N[C@@H](CO)C(=O)NCC(=O)N[C@@H](C)C(=O)N1CCC[C@H]1C(=O)N1CCC[C@H]1C(=O)N1CCC[C@H]1C(=O)N[C@@H](CO)C(N)=O)C(C)C)C(=O)O [compound 23] (H-[dH]GQGTFTSDK([γGlu-Palmitoyl])SKYLDERAAQDFVQWLLEGGPSSGAPPPS-NH2; N-terminus assumed) | 0.043 nM | 0.003 nM | 0.015 nM |
| CCCCCCCCCCCCCCCC(=O)N[C@@H](CCC(=O)NCCCC[C@H](NC(=O)[C@H](CC(=O)O)NC(=O)[C@H](CO)NC(=O)[C@@H](NC(=O)[C@H](Cc1ccccc1)NC(=O)[C@@H](NC(=O)CNC(=O)[C@H](CCC(N)=O)NC(=O)[C@H](C)NC(=O)[C@H](N)Cc1ccc(O)cc1)[C@@H](C)O)[C@@H](C)O)C(=O)N[C@@H](CO)C(=O)N[C@@H](CCCCN)C(=O)N[C@@H](Cc1ccc(O)cc1)C(=O)N[C@@H](CC(C)C)C(=O)N[C@@H](CC(=O)O)C(=O)N[C@@H](CCC(=O)O)C(=O)N[C@@H](CCCNC(=N)N)C(=O)N[C@@H](C)C(=O)N[C@@H](C)C(=O)N[C@@H](CCC(N)=O)C(=O)N[C@@H](CC(=O)O)C(=O)N[C@@H](Cc1ccccc1)C(=O)N[C@H](C(=O)N[C@@H](CCC(N)=O)C(=O)N[C@@H](Cc1c[nH]c2ccccc12)C(=O)N[C@@H](CC(C)C)C(=O)N[C@@H](CC(C)C)C(=O)N[C@@H](CCC(=O)O)C(=O)NCC(=O)NCC(=O)N1CCC[C@H]1C(=O)N[C@@H](CO)C(=O)N[C@@H](CO)C(=O)NCC(=O)N[C@@H](C)C(=O)N1CCC[C@H]1C(=O)N1CCC[C@H]1C(=O)N1CCC[C@H]1C(=O)N[C@@H](CO)C(N)=O)C(C)C)C(=O)O [compound 15] | 0.008 nM | 0.004 nM | 0.05 nM |
| CCCCCCCCCCCCCCCC(=O)N[C@@H](CCC(=O)NCCCC[C@H](NC(=O)[C@H](CC(=O)O)NC(=O)[C@H](CO)NC(=O)[C@@H](NC(=O)[C@H](Cc1ccccc1)NC(=O)[C@@H](NC(=O)CNC(=O)[C@H](CCC(N)=O)NC(=O)CNC(=O)[C@H](CCC(N)=O)NC(C)=O)[C@@H](C)O)[C@@H](C)O)C(=O)N[C@@H](CO)C(=O)N[C@@H](CCCCN)C(=O)N[C@@H](Cc1ccc(O)cc1)C(=O)N[C@@H](CC(C)C)C(=O)N[C@@H](CC(=O)O)C(=O)N[C@@H](CCC(=O)O)C(=O)N[C@@H](CCCNC(=N)N)C(=O)N[C@@H](C)C(=O)N[C@@H](C)C(=O)N[C@@H](CCC(N)=O)C(=O)N[C@@H](CC(=O)O)C(=O)N[C@@H](Cc1ccccc1)C(=O)N[C@H](C(=O)N[C@@H](CCC(N)=O)C(=O)N[C@@H](Cc1c[nH]c2ccccc12)C(=O)N[C@@H](CC(C)C)C(=O)N[C@@H](CC(C)C)C(=O)N[C@@H](CCC(=O)O)C(=O)NCC(=O)NCC(=O)N1CCC[C@H]1C(=O)N[C@@H](CO)C(=O)N[C@@H](CO)C(=O)NCC(=O)N[C@@H](C)C(=O)N1CCC[C@H]1C(=O)N1CCC[C@H]1C(=O)N1CCC[C@H]1C(=O)N[C@@H](CO)C(N)=O)C(C)C)C(=O)O [compound 34] (Ac-QGQGTFTSDK([γGlu-Palmitoyl])SKYLDERAAQDFVQWLLEGGPSSGAPPPS-NH2) | 0.436 nM | 0.611 nM | 0.163 nM |
| CCCCCCCCCCCCCCCC(=O)N[C@@H](CCC(=O)NCCCC[C@H](NC(=O)[C@H](CC(=O)O)NC(=O)[C@H](CO)NC(=O)[C@@H](NC(=O)[C@H](Cc1ccccc1)NC(=O)[C@@H](NC(=O)CNC(=O)[C@H](CCC(N)=O)NC(=O)CN(C)C(=O)[C@@H](N)Cc1c[nH]cn1)[C@@H](C)O)[C@@H](C)O)C(=O)N[C@@H](CO)C(=O)N[C@@H](CCCCN)C(=O)N[C@@H](Cc1ccc(O)cc1)C(=O)N[C@@H](CC(C)C)C(=O)N[C@@H](CC(=O)O)C(=O)N[C@@H](CCC(=O)O)C(=O)N[C@@H](CCCNC(=N)N)C(=O)N[C@@H](C)C(=O)N[C@@H](C)C(=O)N[C@@H](CCC(N)=O)C(=O)N[C@@H](CC(=O)O)C(=O)N[C@@H](Cc1ccccc1)C(=O)N[C@H](C(=O)N[C@@H](CCC(N)=O)C(=O)N[C@@H](Cc1c[nH]c2ccccc12)C(=O)N[C@@H](CC(C)C)C(=O)N[C@@H](CC(C)C)C(=O)N[C@@H](CCC(=O)O)C(=O)NCC(=O)NCC(=O)N1CCC[C@H]1C(=O)N[C@@H](CO)C(=O)N[C@@H](CO)C(=O)NCC(=O)N[C@@H](C)C(=O)N1CCC[C@H]1C(=O)N1CCC[C@H]1C(=O)N1CCC[C@H]1C(=O)N[C@@H](CO)C(N)=O)C(C)C)C(=O)O [compound 28] (H-H[Sar]QGTFTSDK([γGlu-Palmitoyl])SKYLDERAAQDFVQWLLEGGPSSGAPPPS-NH2) | 0.081 nM | 0.002 nM | 0.022 nM |
| CCCCCCCCCCCCCCCC(=O)N[C@@H](CCC(=O)NCCCC[C@H](NC(=O)[C@H](CC(=O)O)NC(=O)[C@H](CO)NC(=O)[C@@H](NC(=O)[C@H](Cc1ccccc1)NC(=O)[C@@H](NC(=O)CNC(=O)[C@H](CCC(N)=O)NC(=O)[C@H](C)NC(=O)C(CN)Cc1c[nH]cn1)[C@@H](C)O)[C@@H](C)O)C(=O)N[C@@H](CO)C(=O)N[C@@H](CCCCN)C(=O)N[C@@H](Cc1ccc(O)cc1)C(=O)N[C@@H](CC(C)C)C(=O)N[C@@H](CC(=O)O)C(=O)N[C@@H](CCC(=O)O)C(=O)N[C@@H](CCCNC(=N)N)C(=O)N[C@@H](C)C(=O)N[C@@H](C)C(=O)N[C@@H](CCC(N)=O)C(=O)N[C@@H](CC(=O)O)C(=O)N[C@@H](Cc1ccccc1)C(=O)N[C@H](C(=O)N[C@@H](CCC(N)=O)C(=O)N[C@@H](Cc1c[nH]c2ccccc12)C(=O)N[C@@H](CC(C)C)C(=O)N[C@@H](CC(C)C)C(=O)N[C@@H](CCC(=O)O)C(=O)NCC(=O)NCC(=O)N1CCC[C@H]1C(=O)N[C@@H](CO)C(=O)N[C@@H](CO)C(=O)NCC(=O)N[C@@H](C)C(=O)N1CCC[C@H]1C(=O)N1CCC[C@H]1C(=O)N1CCC[C@H]1C(=O)N[C@@H](CO)C(N)=O)C(C)C)C(=O)O (stereo partly drawn) [compound 25] | 0.064 nM | 0.003 nM | 0.024 nM |
| CCCCCCCCCCCCCCCC(=O)N[C@@H](CCC(=O)NCCCC[C@H](NC(=O)[C@H](CC(=O)O)NC(=O)[C@H](CO)NC(=O)[C@@H](NC(=O)[C@H](Cc1ccccc1)NC(=O)[C@@H](NC(=O)CNC(=O)[C@H](CCC(N)=O)NC(=O)[C@H](C)NC(=O)[C@@H](Cc1cccs1)NC(C)=O)[C@@H](C)O)[C@@H](C)O)C(=O)N[C@@H](CO)C(=O)N[C@@H](CCCCN)C(=O)N[C@@H](Cc1ccc(O)cc1)C(=O)N[C@@H](CC(C)C)C(=O)N[C@@H](CC(=O)O)C(=O)N[C@@H](CCC(=O)O)C(=O)N[C@@H](CCCNC(=N)N)C(=O)N[C@@H](C)C(=O)N[C@@H](C)C(=O)N[C@@H](CCC(N)=O)C(=O)N[C@@H](CC(=O)O)C(=O)N[C@@H](Cc1ccccc1)C(=O)N[C@H](C(=O)N[C@@H](CCC(N)=O)C(=O)N[C@@H](Cc1c[nH]c2ccccc12)C(=O)N[C@@H](CC(C)C)C(=O)N[C@@H](CC(C)C)C(=O)N[C@@H](CCC(=O)O)C(=O)NCC(=O)NCC(=O)N1CCC[C@H]1C(=O)N[C@@H](CO)C(=O)N[C@@H](CO)C(=O)NCC(=O)N[C@@H](C)C(=O)N1CCC[C@H]1C(=O)N1CCC[C@H]1C(=O)N1CCC[C@H]1C(=O)N[C@@H](CO)C(N)=O)C(C)C)C(=O)O [compound 17] | 0.011 nM | 0.005 nM | 0.008 nM |
